Measurements taken from patent US7470668B2, “Method of use of specific natriuretic peptide receptor c ligands, transgenic non-human mammals expressing specific natriuretic peptide receptor c antagonists and cells thereof” (Enobia Pharma Inc., priority 2005, dated 2008).
Positions of bridges follow the written chain, without caps; N, C: chain ends. Residues, ends and D or L forms follow the SMILES beside them. No end group written: not given here.

Assays:
NPR-C [1] = biological target: T1, NPR-C (Homo sapiens, UniProt P17342); test: ANP-stimulated cGMP in NPR-C overexpressing HEK293 cells; format: cell-based; settings: NPR-C overexpressing cells, 0.1 nM ANP[1-28] alone
T1 construct: expressed in transfected cells; host or cells: HEK293, transient, pCDNA1.1 (CMV promoter)
T1 sequence (P17342 27-541): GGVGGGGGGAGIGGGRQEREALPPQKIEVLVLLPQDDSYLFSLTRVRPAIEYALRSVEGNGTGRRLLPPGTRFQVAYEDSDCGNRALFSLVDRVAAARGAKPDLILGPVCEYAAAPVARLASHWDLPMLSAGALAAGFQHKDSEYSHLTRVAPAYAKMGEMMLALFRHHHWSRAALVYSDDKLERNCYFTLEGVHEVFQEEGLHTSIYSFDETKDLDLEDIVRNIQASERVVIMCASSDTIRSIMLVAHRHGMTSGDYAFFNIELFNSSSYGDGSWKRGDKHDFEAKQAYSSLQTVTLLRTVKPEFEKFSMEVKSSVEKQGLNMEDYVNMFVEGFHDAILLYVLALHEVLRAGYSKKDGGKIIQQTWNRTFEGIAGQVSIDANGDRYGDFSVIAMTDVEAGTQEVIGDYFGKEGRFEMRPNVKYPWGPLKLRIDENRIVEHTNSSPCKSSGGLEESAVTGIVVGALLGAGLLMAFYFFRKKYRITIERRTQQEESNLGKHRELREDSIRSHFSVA
Excerpt: The expression plasmid for rat GC-A containing the entire coding sequence cloned between the NheI-KpnI sites of CMV-driven pBK plasmid (Stratagene, La Jolla, Calif.) was kindly provided by Dr. A. De Léan (Département de Pharmacologie, Université de Montréal). The human NPR-C and GC-B coding sequences were amplified by RT-PCR from human embryonic kidney polyA RNA (Clontech, Palo Alto, Calif.) with the following primer pairs: NPR-C-5′-[…]-3′(forward) (SEQ ID NO: 74) and 5′-[…]-3′ (SEQ ID NO: 75) (reverse); GC-B-5′-[…]-3′ (SEQ ID NO: 76) (forward) and 5′-[…]-3′ (SEQ ID NO: 77) (reverse). The resulting PCR products were then cloned downstream of the CMV-promoter into the pCDNA1.1 plasmid (Invitrogen, Burlington, ON, Canada). All constructs were validated by DNA sequencing.

[2] = system: primary rat osteoblastic cultures; settings: cited from earlier work
NPR-C [3] = biological target: T2, NPR-C (Mus musculus, UniProt P70180); test: Competitive binding of 125I-Ostn[83-133] on ATDC5 cells
T2 construct: NPR-C was also found to be expressed in these cells; endogenous in cells; host or cells: ATDC5 (mouse chondrogenic cell line), intact cells
T2 sequence (P70180 41-536): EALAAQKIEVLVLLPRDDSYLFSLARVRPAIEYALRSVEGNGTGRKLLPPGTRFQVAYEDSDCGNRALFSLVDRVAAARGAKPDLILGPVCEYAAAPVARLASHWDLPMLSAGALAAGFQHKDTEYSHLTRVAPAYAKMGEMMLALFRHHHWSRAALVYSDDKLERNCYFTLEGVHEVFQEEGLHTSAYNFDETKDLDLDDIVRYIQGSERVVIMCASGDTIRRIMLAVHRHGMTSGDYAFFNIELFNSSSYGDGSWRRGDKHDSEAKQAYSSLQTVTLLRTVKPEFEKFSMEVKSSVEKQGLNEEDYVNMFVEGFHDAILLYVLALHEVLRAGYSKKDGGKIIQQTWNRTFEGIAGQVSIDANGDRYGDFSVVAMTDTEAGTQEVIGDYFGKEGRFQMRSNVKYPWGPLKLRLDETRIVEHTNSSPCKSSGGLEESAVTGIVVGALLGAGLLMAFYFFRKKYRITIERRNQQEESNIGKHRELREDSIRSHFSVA
Excerpt: (§1) To gain further insight into the cellular basis of the interaction between CNP and Ostn in endochondral bone formation, ATDC5 cells were used. These cells are a mouse chondrogenic cell line derived from embryogenic carcinoma cells (Shukunami et al., 1996). […] In another study, NPR-C was also found to be expressed in these cells and the amount of transcripts decreased in association with the chondrogenic differentiation (Fujishige et al., 1999).
(§2) Cold and radio iodinated human Ostn[83-133] (SEQ ID NO: 41) were purchased from Phoenix Pharmaceutical co. (CA, USA). CNP was obtained from Sigma (St. Louis, USA) and rat C-ANF was purchased from Bachem (CA, USA). Cyclic GMP direct Biotrak™ EIA kit was obtained from Amersham Biosciences (Quebec, Canada) and DMEM/F-12 and PBS were obtained from Wisent (Quebec, Canada). Protease inhibitors were purchased from Roche (Quebec, Canada)
ATDC5 cells, grown in 24-well plates to 90% confluence, were washed twice with cold PBS and incubated with 500 μl of DMEM/F-F12 containing 0.1% BSA (wt/vol), protease inhibitor (40 μl/ml of medium), ^1251-Ostn[83-133] (0.05 μCi/well) and varying concentration of cold Ostn[83-133] (SEQ ID NO: 41) for 90 min at 4° C. After incubation, cells were washed twice with ice-cold PBS and solubilized with 0.5-ml of 0.5 M NaOH.
The radioactivity was measured with gamma-counter (Wallac).

ATDC5 cells = test: cGMP production in ATDC5 cells; format: cell-based, mouse; settings: for cGMP production by peptide alone: 0.1 μM
Excerpt: as §1, with “1999). Therefore, ATDC5 cells are considered to be a good model to study the interaction between CNP and Ostn in vitro.” for “1999).”
as §2
Cells, grown in 24-well plates to 90% confluence, were washed twice with PBS and incubated in DMEM/F12 containing 1 mM IBMX, a protease inhibitor cocktail (40 ul/ml of medium), 0.1% BSA with or without C-ANF (0.1 μM) or Ostn[83-133] (0.1 μM) for 10 min at 37° C. prior to the addition of varying concentrations of CNP. They were then incubated for 15 min. After incubation, cells were washed twice with PBS and scraped in ice-cold ethanol (65%). The supernatant, obtained by centrifuging at 2000×g for 15 min at 4° C., was evaporated to dryness via speed vac. The amount of cGMP was measured with cGMP direct Biotrak™ EIA kit.

[4] = system: foetal mouse tibial organ culture; settings: ex vivo foetal mouse tibia; cited from earlier work
human GC-B = biological target: T3, human GC-B (Homo sapiens, UniProt P20594); test: Intracellular cGMP in GC-B transfected HEK293 cells; format: cell-based; settings: 10 nM peptide, 15 min
T3 construct: expressed in transfected cells; host or cells: HEK293, transient, pCDNA1.1 (CMV promoter)
T3 sequence (P20594 23-1047): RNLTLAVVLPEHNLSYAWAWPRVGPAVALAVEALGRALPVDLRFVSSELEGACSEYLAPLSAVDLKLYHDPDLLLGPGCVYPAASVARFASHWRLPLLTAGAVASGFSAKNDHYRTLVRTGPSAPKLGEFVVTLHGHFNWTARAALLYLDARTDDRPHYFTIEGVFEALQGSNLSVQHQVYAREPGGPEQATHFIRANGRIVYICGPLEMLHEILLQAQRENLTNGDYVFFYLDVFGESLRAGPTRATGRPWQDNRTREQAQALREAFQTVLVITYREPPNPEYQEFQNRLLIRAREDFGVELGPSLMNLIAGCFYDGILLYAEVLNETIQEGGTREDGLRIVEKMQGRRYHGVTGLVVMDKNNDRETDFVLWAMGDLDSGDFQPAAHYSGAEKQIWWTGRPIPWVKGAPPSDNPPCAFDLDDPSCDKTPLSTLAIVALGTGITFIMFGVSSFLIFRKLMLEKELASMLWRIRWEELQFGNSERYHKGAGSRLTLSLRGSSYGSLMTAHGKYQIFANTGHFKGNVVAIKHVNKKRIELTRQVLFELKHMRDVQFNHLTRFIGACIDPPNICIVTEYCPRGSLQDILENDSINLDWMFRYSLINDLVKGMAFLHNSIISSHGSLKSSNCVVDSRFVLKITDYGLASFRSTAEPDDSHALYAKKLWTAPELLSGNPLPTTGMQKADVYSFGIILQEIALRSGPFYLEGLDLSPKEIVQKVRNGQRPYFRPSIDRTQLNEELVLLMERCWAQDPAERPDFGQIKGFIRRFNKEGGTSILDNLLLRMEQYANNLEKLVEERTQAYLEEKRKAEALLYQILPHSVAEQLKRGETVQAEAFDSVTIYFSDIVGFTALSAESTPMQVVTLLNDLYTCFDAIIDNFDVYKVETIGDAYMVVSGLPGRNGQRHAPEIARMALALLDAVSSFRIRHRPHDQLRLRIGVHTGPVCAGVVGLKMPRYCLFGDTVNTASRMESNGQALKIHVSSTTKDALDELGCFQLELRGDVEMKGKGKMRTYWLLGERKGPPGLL

increase in cGMP levels upon ANP stimulation (NPR-C [1]) [fold] | intracellular cGMP response via GC-B (human GC-B) | inhibition of bound 125I-Ostn[83-133] (NPR-C [3]; 1 μM cold peptide) | total binding (NPR-C [3]; ATDC5 cells, 24-well plates) [pmol/well] | Compound | effect on osteoblast differentiation [2] | effect on proliferation [2] | IC50 (NPR-C [3]) [nM] | maximal inhibition, less than that of cold Ostn[83-133] (NPR-C [3]; 1 μM) [%] | cGMP production by peptide alone (ATDC5 cells) | effect on bone length [4] | cGMP production (ATDC5 cells; varying concentrations of CNP, 15 min)
1.5 |  |  |  | CC[C@H](C)[C@@H]1NC(=O)[C@H](CCCNC(=N)N)NC(=O)[C@H](CC(=O)O)NC(=O)[C@H](CCSC)NC(=O)[C@H](CCCNC(=N)N)NC(=O)CNC(=O)CNC(=O)[C@H](Cc2ccccc2)NC(=O)[C@@H](NC(=O)[C@H](CO)NC(=O)[C@H](CO)NC(=O)[C@H](CCCNC(=N)N)NC(=O)[C@H](CCCNC(=N)N)NC(=O)[C@H](CC(C)C)NC(=O)[C@@H](N)CO)CSSC[C@@H](C(=O)N[C@@H](CC(N)=O)C(=O)N[C@@H](CO)C(=O)N[C@@H](Cc2ccccc2)C(=O)N[C@@H](CCCNC(=N)N)C(=O)N[C@@H](Cc2ccc(O)cc2)C(=O)O)NC(=O)CNC(=O)[C@H](CC(C)C)NC(=O)CNC(=O)[C@H](CO)NC(=O)[C@H](CCC(N)=O)NC(=O)[C@H](C)NC(=O)CNC1=O [ANP] | stimulated osteoblast differentiation | inhibited proliferation |  |  |  |  | 
 |  |  |  | CC[C@H](C)[C@@H]1NC(=O)[C@H](CCCNC(=N)N)NC(=O)[C@H](CC(=O)O)NC(=O)[C@H]([C@@H](C)CC)NC(=O)[C@H](CCCNC(=N)N)NC(=O)CNC(=O)CNC(=O)[C@H](Cc2ccccc2)NC(=O)[C@@H](NC(=O)[C@H](CO)NC(=O)[C@H](CO)NC(=O)[C@@H](N)CCCNC(=N)N)CSSC[C@@H](C(N)=O)NC(=O)[C@H](C)NC(=O)CNC1=O [C-ANF] (H-RSSCFGGRIDRIGAC-NH2; disulfide 4-15; N-terminus and C-terminus assumed) | no effect |  | 6.7 | 15 | only trace of cGMP production | no effect | 
 | greatest responses |  |  | CNP: natriuretic peptide CNP (1-22) from Sigma; GC-B selective agonist | stimulated osteoblast differentiation | inhibited proliferation |  |  |  | significant increases in bone length | concentration-dependent cGMP production
 |  | More than 90% | 76.5 | SFSGFGSPLDRLSAGSVDHKGKQRKVVDHPKRRFGIPMDRIGRNRLSNSRG [Ostn[83-133]] |  |  |  |  | only trace of cGMP production |  | 
